US11072617B2, “Bicyclic sulfones and sulfoxides and methods of use thereof” (Genentech, Inc., priority 2017, dated 2021)

target: human RIP1 kinase domain (2-375) (Homo sapiens (Human), UniProt Q13546); assay: RIP1 kinase inhibition biochemical assay (Transcreener ADP, fluorescence polarization); conditions: Ki app from tight-binding Morrison equation; 50 nM enzyme, 50 uM ATP, 2 hours incubation
Summary of the method: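 Baculovirus-expressed human RIP1 kinase domain (2-375), 50 nM, incubated 2 h with compounds in pH 7.5 Hepes, 30 mM MgCl2, 50 uM ATP, 0.5% DMSO. ADP detected by Transcreener fluorescence-polarization tracer displacement; Ki^app from Morrison tight-binding fit.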

human RIP1 kinase domain (2-375), sequence (Q13546 2-375): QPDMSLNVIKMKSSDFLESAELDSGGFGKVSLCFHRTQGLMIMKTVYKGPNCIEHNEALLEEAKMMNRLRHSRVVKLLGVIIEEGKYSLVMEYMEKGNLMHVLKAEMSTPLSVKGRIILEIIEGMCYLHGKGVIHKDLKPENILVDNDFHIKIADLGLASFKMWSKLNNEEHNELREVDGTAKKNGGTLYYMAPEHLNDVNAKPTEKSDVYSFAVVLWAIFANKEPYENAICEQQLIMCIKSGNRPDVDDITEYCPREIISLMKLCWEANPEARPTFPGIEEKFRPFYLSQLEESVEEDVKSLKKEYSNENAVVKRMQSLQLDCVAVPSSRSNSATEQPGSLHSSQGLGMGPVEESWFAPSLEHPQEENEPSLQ

Row | Ki | SMILES
1 | 0.162 µM | CC[S@+]([O-])c1nc2n(n1)[C@H](c1ccccc1)CC2 [Example 3, (5S)-2-[(S)-ethylsulfinyl]-5-phenyl-6,7-dihydro-5H-pyrrolo[1,2-b][1,2,4]triazole]
2 | 0.548 µM | [O-][S+](c1nc2n(n1)C(c1ccccc1)CC2)C(F)(F)c1ccccc1 (stereo not shown) [Example 5, 2-[difluoro(phenyl)methyl]sulfinyl-5-phenyl-6,7-dihydro-5H-pyrrolo[1,2-b][1,2,4]triazole]
3 | 0.089 µM | [O-][S+](c1nc2n(n1)C(c1ccccc1)CC2)C(F)(F)F (stereo not shown) [Example 10, 5-phenyl-2-(trifluoromethylsulfinyl)-6,7-dihydro-5H-pyrrolo[1,2-b][1,2,4]triazole]
4 | 0.01 µM | [O-][S@+](c1nc2n(n1)[C@H](c1ccccc1)CC2)C(F)F [Example 11, (5S)-2-[(R)-difluoromethylsulfinyl]-5-phenyl-6,7-dihydro-5H-pyrrolo[1,2-b][1,2,4]triazole]
5 | 0.048 µM | [O-][S@@+](c1nc2n(n1)[C@H](c1ccccc1)CC2)C(F)F [Example 12, (5S)-2-[(S)-difluoromethylsulfinyl]-5-phenyl-6,7-dihydro-5H-pyrrolo[1,2-b][1,2,4]triazole]
6 | 1.6 µM | O=S(=O)(c1nc2n(n1)[C@@H](c1ccccc1Cl)CC2)C(F)F [Example 15, (5R)-5-(2-chlorophenyl)-2-(difluoromethylsulfonyl)-6,7-dihydro-5H-pyrrolo[1,2-b][1,2,4]triazole]
7 | 0.056 µM | O=S(=O)(c1nc2n(n1)[C@H](c1ccccc1Cl)CC2)C(F)F [Example 16, (5S)-5-(2-chlorophenyl)-2-(difluoromethylsulfonyl)-6,7-dihydro-5H-pyrrolo[1,2-b][1,2,4]triazole]
8 | 0.05 µM | [O-][S@@+](c1nc2n(n1)[C@H](c1ccccc1Cl)CC2)C(F)F [Example 17, (5S)-5-(2-chlorophenyl)-2-[(S)-difluoromethylsulfinyl]-6,7-dihydro-5H-pyrrolo[1,2-b][1,2,4]triazole]
9 | 0.008 µM | [O-][S@+](c1nc2n(n1)[C@H](c1ccccc1Cl)CC2)C(F)F [Example 18, (5S)-5-(2-chlorophenyl)-2-[(R)-difluoromethylsulfinyl]-6,7-dihydro-5H-pyrrolo[1,2-b][1,2,4]triazole]
10 | 0.024 µM | [O-][S+](Cc1ccccc1)c1nc2n(n1)[C@H](c1ccccc1)C[C@@H]2F (stereo partly drawn) [Example 20, (5S,7S)-2-benzylsulfinyl-7-fluoro-5-phenyl-6,7-dihydro-5H-pyrrolo[1,2-b][1,2,4]triazole]
11 | 0.1 µM | [O-][S@@+](c1nc2n(n1)[C@H](c1ccccc1)C[C@@H]2F)C(F)F [Example 21, (5S,7S)-2-[(S)-difluoromethylsulfinyl]-7-fluoro-5-phenyl-6,7-dihydro-5H-pyrrolo[1,2-b][1,2,4]triazole]
12 | 0.003 µM | [O-][S@+](c1nc2n(n1)[C@H](c1ccccc1)C[C@@H]2F)C(F)F [Example 22, (5S,7S)-2-[(R)-difluoromethylsulfinyl]-7-fluoro-5-phenyl-6,7-dihydro-5H-pyrrolo[1,2-b][1,2,4]triazole]
13 | 0.02 µM | CC(C)(C)[S+]([O-])c1nc2n(n1)[C@H](c1ccccc1)C[C@@H]2F (stereo partly drawn) [Example 24, (5S,7S)-2-(tert-butylsulfinyl)-7-fluoro-5-phenyl-6,7-dihydro-5H-pyrrolo[1,2-b][1,2,4]triazole]
14 | 0.033 µM | [O-][S+](c1nc2n(n1)[C@H](c1ccccc1)C[C@@H]2F)C1CC1 (stereo partly drawn) [Example 27, (5S,7S)-2-cyclopropylsulfinyl-7-fluoro-5-phenyl-6,7-dihydro-5H-pyrrolo[1,2-b][1,2,4]triazole]
15 | 0.089 µM | [O-][S@@+](c1nc2n(n1)[C@H](c1ccccc1)C[C@@H]2F)C1CC1 [Example 28, (5S,7S)-2-[(R)-cyclopropylsulfinyl]-7-fluoro-5-phenyl-6,7-dihydro-5H-pyrrolo[1,2-b][1,2,4]triazole]
16 | 0.004 µM | [O-][S@+](c1nc2n(n1)[C@H](c1ccccc1)C[C@@H]2F)C1CC1 [Example 29, (5S,7S)-2-[(S)-cyclopropylsulfinyl]-7-fluoro-5-phenyl-6,7-dihydro-5H-pyrrolo[1,2-b][1,2,4]triazole]
17 | 0.004 µM | O=S(=O)(c1nc2n(n1)[C@H](c1ccccc1)C[C@@H]2F)C1CC1 [Example 30, (5S,7S)-2-cyclopropylsulfonyl-7-fluoro-5-phenyl-6,7-dihydro-5H-pyrrolo[1,2-b][1,2,4]triazole]
18 | 0.01 µM | O=S(=O)(c1cc2n(n1)[C@H](c1ccccc1)C[C@@H]2F)C1CC1 [Example 31, (4S,6S)-2-cyclopropylsulfonyl-4-fluoro-6-phenyl-5,6-dihydro-4H-pyrrolo[1,2-b]pyrazole]
19 | 0.005 µM | O=S(=O)(c1nc2n(n1)[C@H](c1ccccc1F)C[C@@H]2F)C1CC1 [Example 33, (5S,7S)-2-cyclopropylsulfonyl-7-fluoro-5-(2-fluorophenyl)-6,7-dihydro-5H-pyrrolo[1,2-b][1,2,4]triazole]

Row | Ki | SMILES
20 | 0.14 µM | [2H][C@H]1C[C@@H](c2ccccc2)n2nc(S(=O)(=O)C3CC3)nc21 [Example 41, (5S,7S)-2-cyclopropylsulfonyl-7-deuterio-5-phenyl-6,7-dihydro-5H-pyrrolo[1,2-b][1,2,4]triazole]
21 | 0.012 µM | [O-][S+](c1nc2n(n1)[C@H](c1ccccc1)C[C@@H]2F)C1CC(F)(F)C1 (stereo partly drawn) [Example 49, (5S,7S)-2-(3,3-difluorocyclobutyl)sulfinyl-7-fluoro-5-phenyl-6,7-dihydro-5H-pyrrolo[1,2-b][1,2,4]triazole]
22 | 0.017 µM | [O-][S+](c1nc2n(n1)[C@H](c1cccc(F)c1)C[C@@H]2F)C(F)F (stereo partly drawn) [Example 54, (5S,7S)-2-((difluoromethyl)sulfinyl)-7-fluoro-5-(3-fluorophenyl)-6,7-dihydro-5H-pyrrolo[1,2-b][1,2,4]triazole]
23 | 0.069 µM | O=S(=O)(c1nc2n(n1)[C@H](c1cc(Cl)ccc1F)C[C@@H]2F)C(F)F [Example 66, (5S,7S)-5-(5-chloro-2-fluorophenyl)-2-((difluoromethyl)sulfonyl)-7-fluoro-6,7-dihydro-5H-pyrrolo[1,2-b][1,2,4]triazole]
24 | 0.09 µM | [O-][S@+](CF)c1nc2n(n1)[C@H](c1ccccc1)C[C@@H]2F [Example 71]
25 | 0.018 µM | N#CC[S+]([O-])c1nc2n(n1)[C@H](c1ccccc1)C[C@@H]2F (stereo partly drawn) [Example 102, 2-[[(5S,7S)-7-fluoro-5-phenyl-6,7-dihydro-5H-pyrrolo[1,2-b][1,2,4]triazol-2-yl]sulfinyl]acetonitrile]
26 | 0.15 µM | CC(C)(C#N)[S+]([O-])c1nc2n(n1)[C@H](c1ccccc1)C[C@@H]2F (stereo partly drawn) [Example 103, 2-[[(5S,7S)-7-fluoro-5-phenyl-6,7-dihydro-5H-pyrrolo[1,2-b][1,2,4]triazol-2-yl]sulfinyl]-2-methyl-propanenitrile]
27 | 0.046 µM | C[S+]([O-])c1nc2n(n1)[C@H](c1ccccc1)C[C@@H]2F (stereo partly drawn) [Example 105, (5S,7S)-7-fluoro-2-methylsulfinyl-5-phenyl-6,7-dihydro-5H-pyrrolo[1,2-b][1,2,4]triazole]
28 | 0.034 µM | CC[S+]([O-])c1nc2n(n1)[C@H](c1ccccc1)C[C@@H]2F (stereo partly drawn) [Example 107, (5S,7S)-2-ethylsulfinyl-7-fluoro-5-phenyl-6,7-dihydro-5H-pyrrolo[1,2-b][1,2,4]triazole]
29 | 0.019 µM | CC(C)[S+]([O-])c1nc2n(n1)[C@H](c1ccccc1)C[C@@H]2F (stereo partly drawn) [Example 109, (5S,7S)-7-fluoro-2-isopropylsulfinyl-5-phenyl-6,7-dihydro-5H-pyrrolo[1,2-b][1,2,4]triazole]
30 | 0.044 µM | [O-][S+](CC1CC1)c1nc2n(n1)[C@H](c1ccccc1)C[C@@H]2F (stereo partly drawn) [Example 111, (5S,7S)-2-(cyclopropylmethylsulfinyl)-7-fluoro-5-phenyl-6,7-dihydro-5H-pyrrolo[1,2-b][1,2,4]triazole]
31 | 0.028 µM | [O-][S+](CC(F)(F)F)c1nc2n(n1)[C@H](c1ccccc1)C[C@@H]2F (stereo partly drawn) [Example 113, (5S,7S)-7-fluoro-5-phenyl-2-(2,2,2-trifluoroethylsulfinyl)-6,7-dihydro-5H-pyrrolo[1,2-b][1,2,4]triazole]
32 | 0.031 µM | COC[S+]([O-])c1nc2n(n1)[C@H](c1ccccc1)C[C@@H]2F (stereo partly drawn) [Example 115, (5S,7S)-7-fluoro-2-(methoxymethylsulfinyl)-5-phenyl-6,7-dihydro-5H-pyrrolo[1,2-b][1,2,4]triazole]
33 | 0.012 µM | [O-][S+](c1nc2n(n1)[C@H](c1ccccc1)C[C@@H]2F)C1CC1(F)F (stereo partly drawn) [Example 117, (5S,7S)-2-((2,2-difluorocyclopropyl)sulfinyl)-7-fluoro-5-phenyl-6,7-dihydro-5H-pyrrolo[1,2-b][1,2,4]triazole]
34 | < 0.005 µM | O=S(=O)(c1nc2n(n1)[C@H](c1cccc(F)c1F)C[C@@H]2F)[C@H]1CC1(F)F [Example 121, (5S,7S)-2-(2,2-difluorocyclopropyl)sulfonyl-5-(2,3-difluorophenyl)-7-fluoro-6,7-dihydro-5H-pyrrolo[1,2-b][1,2,4]triazole]
35 | < 0.005 µM | O=S(=O)(c1nc2n(n1)[C@H](c1c(F)cccc1F)C[C@@H]2F)C1CC1(F)F (stereo partly drawn) [Example 123, (5S,7S)-2-(2,2-difluorocyclopropyl)sulfonyl-5-(2,6-difluorophenyl)-7-fluoro-6,7-dihydro-5H-pyrrolo[1,2-b][1,2,4]triazole]
36 | 0.003 µM | O=S(=O)(c1nc2n(n1)[C@H](c1ccccc1)C[C@@H]2F)[C@H]1CC1(F)F [Example 130, (5S,7S)-2-(((S)-2,2-difluorocyclopropyl)sulfonyl)-7-fluoro-5-phenyl-6,7-dihydro-5H-pyrrolo[1,2-b][1,2,4]triazole]
37 | 0.011 µM | [O-][S+](c1nc2n(n1)[C@H](c1ccccc1)C[C@@H]2F)C(F)(F)F (stereo partly drawn) [Example 132, (5S,7S)-7-fluoro-5-phenyl-2-(trifluoromethylsulfinyl)-6,7-dihydro-5H-pyrrolo[1,2-b][1,2,4]triazole]
